This is an account of results in patent publication US20050107386A1, “Methods of treating diseases and disorders by targeting multiple kinases” (priority 2003, published 2005).

Molecules are shown by their SMILES.

Common to all, as to format: biochemical
Details in all cases: 3 μM; percent of control kinase activity

One assay addresses Blk(m) (Mus musculus, UniProt P16277). Put plainly: Blk(m) kinase assay. The protocol:
(§1) Six compounds (presumptive single agents) were tested against a panel of 50 kinases. The results are presented in Table 2; numbers for each kinase indicate the percent of control kinase activity in the presence of a 3μM concentration of the indicated agent.
(§2) Agents that target two or more different kinases are useful in the methods of the invention as described elsewhere herein. Such compounds may be identified, and their effect on certain kinases may be identified, using the assays briefly described below in Examples 4-83. Each of these assays was carried out as described in Davies et al., Biochem. J., 351:95-105 (2000). All assays were carried out at 10 μM ATP unless otherwise noted.
(§3) In a final reaction volume of 25 μl, Blk (m) (5-10 mU) is incubated with 50 mM Tris pH 7.5, 0.1 mM EGTA, 0.1 mM NaVanadate, 0.1% β-mercaptoethanol, 0.1 mg/ml poly(Glu, Tyr) 4:1, 10 mM MgAcetate and [γ-^33P-ATP] (specific activity approx. 500 cpm/pmol, concentration as required). The reaction is initiated by the addition of Mg^2+ [γ-^33P-ATP]. After incubation for 40 minutes at room temperature, the reaction is stopped by the addition of 5 μl of a 3% phosphoric acid solution. 10 μl of the reaction is then spotted onto a Filtermat A and washed three times for 5 minutes in 75 mM phosphoric acid and once in methanol prior to drying and scintillation counting.

For the next assay, the target named is CHK2(h) (Homo sapiens, UniProt O96017). Put plainly: CHK2(h) kinase assay. The protocol: as §1, §2
Chain of CHK2(h) (O96017 whole entry): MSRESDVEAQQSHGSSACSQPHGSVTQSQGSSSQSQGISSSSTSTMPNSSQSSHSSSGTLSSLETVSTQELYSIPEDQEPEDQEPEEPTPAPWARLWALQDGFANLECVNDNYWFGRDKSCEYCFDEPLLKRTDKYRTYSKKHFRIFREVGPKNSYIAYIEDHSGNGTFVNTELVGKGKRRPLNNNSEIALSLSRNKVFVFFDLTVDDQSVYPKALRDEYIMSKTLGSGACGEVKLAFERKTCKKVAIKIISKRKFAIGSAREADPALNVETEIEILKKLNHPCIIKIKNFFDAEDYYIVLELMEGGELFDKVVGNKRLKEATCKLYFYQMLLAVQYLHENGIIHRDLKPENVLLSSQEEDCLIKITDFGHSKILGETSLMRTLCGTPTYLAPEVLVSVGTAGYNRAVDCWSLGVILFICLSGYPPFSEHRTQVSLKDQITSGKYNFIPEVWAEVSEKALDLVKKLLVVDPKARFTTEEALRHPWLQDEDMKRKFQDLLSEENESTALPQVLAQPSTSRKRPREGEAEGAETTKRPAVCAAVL
as §3, with “μl, CHK2 (h)” for “μl, Blk (m)”, “with 8” for “with 50”, “mM MOPS” for “mM Tris”, “pH 7.0,0.2” for “pH 7.5, 0.1”, “mM EDTA, 200 μM […] (SEQ ID NO:5),” for “mM EGTA, 0.1 mM NaVanadate, 0.1% β-mercaptoethanol, 0.1 mg/ml poly(Glu, Tyr) 4:1,”, “a P30 filtermat” for “a Filtermat A”

A further assay concerns the target Fes(h) (Homo sapiens, UniProt P07332). Put plainly: Fes(h) kinase assay. Here is the method: as §1, §2
as §3, with “μl, Fes(h)” for “μl, Blk (m)”, “with 8” for “with 50”, “mM MOPS” for “mM Tris”, “pH 7.0, 0.2” for “pH 7.5, 0.1”, “mM EDTA,” for “mM EGTA, 0.1 mM NaVanadate, 0.1% β-mercaptoethanol,”

Another assay concerns the target FGFR3(h) (Homo sapiens, UniProt P22607). Put plainly: FGFR3(h) kinase assay. The protocol:
as §1, §2
as §3, with “FGFR3 (h)” for “Blk (m)”, “4:1, 10 mM MnCl2,” for “4:1,”

For the next assay, the target named is GSK3α(h) (Homo sapiens, UniProt P49840). Put plainly: GSK3α(h) kinase assay. Here is the method: as §1, §2
Chain of GSK3α(h) (P49840 whole entry): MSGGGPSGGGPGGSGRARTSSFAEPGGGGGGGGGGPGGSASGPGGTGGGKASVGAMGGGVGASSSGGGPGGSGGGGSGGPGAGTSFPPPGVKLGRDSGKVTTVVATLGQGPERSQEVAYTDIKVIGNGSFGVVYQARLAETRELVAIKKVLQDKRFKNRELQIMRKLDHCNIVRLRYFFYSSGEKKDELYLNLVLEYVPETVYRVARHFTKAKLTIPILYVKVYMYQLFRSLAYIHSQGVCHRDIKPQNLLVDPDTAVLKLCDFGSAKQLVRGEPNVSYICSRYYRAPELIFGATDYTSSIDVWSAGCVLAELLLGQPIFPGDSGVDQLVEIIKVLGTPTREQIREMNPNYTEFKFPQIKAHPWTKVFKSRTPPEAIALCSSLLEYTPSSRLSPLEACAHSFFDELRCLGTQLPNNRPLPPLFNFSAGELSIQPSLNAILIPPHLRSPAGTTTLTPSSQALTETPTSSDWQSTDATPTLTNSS
A further assay deals with MSK1(h) (Homo sapiens, UniProt O75582). Put plainly: MSK1(h) kinase assay. The protocol:
as §1, §2
as §3, with “μl, MSK1 (h)” for “μl, Blk (m)”, “with 8” for “with 50”, “mM MOPS” for “mM Tris”, “pH 7.0, 0.2” for “pH 7.5, 0.1”, “mM EDTA, 30 μM […] (SEQ ID NO:2),” for “mM EGTA, 0.1 mM NaVanadate, 0.1% β-mercaptoethanol, 0.1 mg/ml poly(Glu, Tyr) 4:1,”, “a P30 filtermat” for “a Filtermat A”

In another assay the target is PDGFRα(h) (Homo sapiens, UniProt P16234). Put plainly: PDGFRα(h) kinase assay. The protocol: as §1, §2
Chain of PDGFRα(h) (P16234 24-1089): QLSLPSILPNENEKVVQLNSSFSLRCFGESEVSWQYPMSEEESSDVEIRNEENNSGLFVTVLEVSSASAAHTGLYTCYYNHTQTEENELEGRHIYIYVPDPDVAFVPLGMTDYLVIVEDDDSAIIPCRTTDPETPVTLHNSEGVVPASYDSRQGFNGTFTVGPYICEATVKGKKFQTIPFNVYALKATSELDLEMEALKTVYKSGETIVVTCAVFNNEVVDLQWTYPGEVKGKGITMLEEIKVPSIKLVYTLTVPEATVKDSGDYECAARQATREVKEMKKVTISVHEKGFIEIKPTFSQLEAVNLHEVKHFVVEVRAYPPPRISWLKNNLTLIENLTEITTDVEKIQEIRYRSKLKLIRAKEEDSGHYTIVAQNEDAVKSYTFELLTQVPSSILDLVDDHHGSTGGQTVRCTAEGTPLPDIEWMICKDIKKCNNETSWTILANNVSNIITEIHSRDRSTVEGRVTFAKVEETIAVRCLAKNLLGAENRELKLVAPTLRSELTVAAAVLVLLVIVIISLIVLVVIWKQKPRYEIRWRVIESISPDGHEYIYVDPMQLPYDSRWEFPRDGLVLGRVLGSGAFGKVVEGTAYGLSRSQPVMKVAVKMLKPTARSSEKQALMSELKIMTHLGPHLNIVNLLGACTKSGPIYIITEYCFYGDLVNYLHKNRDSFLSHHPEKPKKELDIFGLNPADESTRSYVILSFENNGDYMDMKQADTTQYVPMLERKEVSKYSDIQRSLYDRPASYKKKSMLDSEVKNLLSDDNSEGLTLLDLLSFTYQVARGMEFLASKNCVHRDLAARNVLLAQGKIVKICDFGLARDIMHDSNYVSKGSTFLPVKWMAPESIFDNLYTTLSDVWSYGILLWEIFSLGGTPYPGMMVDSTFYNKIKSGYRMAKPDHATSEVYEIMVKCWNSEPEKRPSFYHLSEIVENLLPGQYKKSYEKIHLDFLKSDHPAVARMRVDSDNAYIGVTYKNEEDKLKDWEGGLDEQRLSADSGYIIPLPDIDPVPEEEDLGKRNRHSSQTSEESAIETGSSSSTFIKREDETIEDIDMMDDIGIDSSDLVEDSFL
as §3, with “μl, PDGFRα (h)” for “μl, Blk (m)”, “with 8” for “with 50”, “mM MOPS” for “mM Tris”, “pH 7.0, 0.2” for “pH 7.5, 0.1”, “mM EDTA,” for “mM EGTA, 0.1 mM NaVanadate, 0.1% β-mercaptoethanol,”, “4:1, 10 mM MnCl2,” for “4:1,”

Another assay concerns the target ROCK-II(h) (Homo sapiens, UniProt O75116). Put plainly: ROCK-II(h) kinase assay. The protocol: as §1, §2
as §3, with “ROCK-II (h)” for “Blk (m)”, “30 μM […] (SEQ ID NO:8),” for “0.1 mM NaVanadate, 0.1% β-mercaptoethanol, 0.1 mg/ml poly(Glu, Tyr) 4:1,”, “P30 filtermat” for “Filtermat A”

Chain of ROCK-II(h) (O75116 whole entry): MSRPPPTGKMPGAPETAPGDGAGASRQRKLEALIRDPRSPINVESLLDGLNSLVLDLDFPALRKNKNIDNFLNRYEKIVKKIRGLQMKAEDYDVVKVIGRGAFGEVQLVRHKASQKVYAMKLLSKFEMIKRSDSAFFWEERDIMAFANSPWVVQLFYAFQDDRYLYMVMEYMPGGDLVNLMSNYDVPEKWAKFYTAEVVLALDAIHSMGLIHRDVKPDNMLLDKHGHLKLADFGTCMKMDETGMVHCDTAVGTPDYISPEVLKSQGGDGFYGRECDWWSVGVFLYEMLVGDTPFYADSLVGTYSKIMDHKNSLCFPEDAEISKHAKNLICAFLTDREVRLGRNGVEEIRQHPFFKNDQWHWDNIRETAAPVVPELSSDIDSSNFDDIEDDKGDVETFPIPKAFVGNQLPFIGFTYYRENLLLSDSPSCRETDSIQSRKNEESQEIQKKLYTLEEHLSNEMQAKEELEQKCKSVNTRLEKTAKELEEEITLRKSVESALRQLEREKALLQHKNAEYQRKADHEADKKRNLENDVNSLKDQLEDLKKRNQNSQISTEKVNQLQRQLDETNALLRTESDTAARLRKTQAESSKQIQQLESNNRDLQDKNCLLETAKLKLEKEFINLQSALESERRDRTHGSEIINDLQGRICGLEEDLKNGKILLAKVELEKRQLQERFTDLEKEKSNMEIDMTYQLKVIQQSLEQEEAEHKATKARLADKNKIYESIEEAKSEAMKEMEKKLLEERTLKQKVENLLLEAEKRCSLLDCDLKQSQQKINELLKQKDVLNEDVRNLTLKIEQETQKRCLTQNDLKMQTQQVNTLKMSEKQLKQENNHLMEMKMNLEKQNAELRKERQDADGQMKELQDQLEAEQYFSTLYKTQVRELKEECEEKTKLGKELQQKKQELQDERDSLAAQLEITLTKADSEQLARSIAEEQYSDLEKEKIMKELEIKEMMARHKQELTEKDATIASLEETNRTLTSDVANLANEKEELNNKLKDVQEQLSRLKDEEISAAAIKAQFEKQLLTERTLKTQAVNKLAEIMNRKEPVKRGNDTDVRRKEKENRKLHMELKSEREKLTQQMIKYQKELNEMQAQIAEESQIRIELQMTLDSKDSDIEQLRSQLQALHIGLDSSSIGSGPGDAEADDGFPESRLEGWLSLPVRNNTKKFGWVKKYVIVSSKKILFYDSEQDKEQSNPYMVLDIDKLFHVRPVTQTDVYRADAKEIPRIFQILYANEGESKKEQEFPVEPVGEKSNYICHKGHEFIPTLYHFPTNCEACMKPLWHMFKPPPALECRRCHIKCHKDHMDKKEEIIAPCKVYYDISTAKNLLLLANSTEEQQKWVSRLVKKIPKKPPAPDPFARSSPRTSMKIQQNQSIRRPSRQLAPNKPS
Chain of Fes(h) (P07332 whole entry): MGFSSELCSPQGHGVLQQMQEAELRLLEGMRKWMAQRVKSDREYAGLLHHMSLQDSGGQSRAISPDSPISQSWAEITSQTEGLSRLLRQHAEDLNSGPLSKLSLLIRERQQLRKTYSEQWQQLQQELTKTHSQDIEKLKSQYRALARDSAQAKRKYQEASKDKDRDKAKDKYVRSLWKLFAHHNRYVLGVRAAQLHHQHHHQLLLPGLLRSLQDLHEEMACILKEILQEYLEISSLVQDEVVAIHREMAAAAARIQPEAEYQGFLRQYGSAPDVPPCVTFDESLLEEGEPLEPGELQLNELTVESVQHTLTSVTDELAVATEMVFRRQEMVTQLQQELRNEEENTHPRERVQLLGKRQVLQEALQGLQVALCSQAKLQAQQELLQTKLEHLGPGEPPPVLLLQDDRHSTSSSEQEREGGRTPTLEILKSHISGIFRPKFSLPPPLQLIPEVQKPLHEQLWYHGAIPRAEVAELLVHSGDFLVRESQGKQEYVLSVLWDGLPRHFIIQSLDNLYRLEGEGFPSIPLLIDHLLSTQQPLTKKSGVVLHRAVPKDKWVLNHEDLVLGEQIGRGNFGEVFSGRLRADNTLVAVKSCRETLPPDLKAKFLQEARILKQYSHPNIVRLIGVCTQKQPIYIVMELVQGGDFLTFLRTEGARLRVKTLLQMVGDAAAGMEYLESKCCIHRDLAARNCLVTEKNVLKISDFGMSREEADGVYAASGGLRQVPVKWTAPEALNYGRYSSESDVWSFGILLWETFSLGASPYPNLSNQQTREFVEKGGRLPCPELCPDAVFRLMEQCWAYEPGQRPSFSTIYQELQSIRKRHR
Chain of Blk(m) (P16277 whole entry): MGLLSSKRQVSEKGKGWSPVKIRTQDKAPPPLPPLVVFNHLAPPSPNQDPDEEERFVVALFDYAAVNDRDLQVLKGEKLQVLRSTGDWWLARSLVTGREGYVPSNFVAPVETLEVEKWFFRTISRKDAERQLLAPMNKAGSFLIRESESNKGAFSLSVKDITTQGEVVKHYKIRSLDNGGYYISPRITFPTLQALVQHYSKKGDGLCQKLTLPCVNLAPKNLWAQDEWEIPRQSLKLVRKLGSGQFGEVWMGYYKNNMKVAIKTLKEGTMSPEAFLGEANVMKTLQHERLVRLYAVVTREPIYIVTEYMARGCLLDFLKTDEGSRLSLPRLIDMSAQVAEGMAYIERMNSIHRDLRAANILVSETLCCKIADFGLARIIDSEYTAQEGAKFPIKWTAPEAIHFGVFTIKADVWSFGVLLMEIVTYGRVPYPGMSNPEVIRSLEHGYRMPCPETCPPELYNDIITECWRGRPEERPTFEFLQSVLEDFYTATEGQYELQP

In the case of `COc1ccc2cc(-c3n[nH]c4ccc(-c5n[nH]c(CN6CCOCC6)n5)cc34)ccc2c1` [CC001, 3-(6-Methoxynaphthalen-2-yl)-5-(5-Morpholin-4-Ylmethyl-1H-[1,2,4]Triazol-3-yl)-1H-Indazole], the “Inhibitory activity (% of control), Blk(m)” value at Blk(m) is listed as 25 % of control. Further, at CHK2(h), the “Inhibitory activity (% of control), CHK2(h)” value is given as 2 % of control. For the same molecule, on Fes(h), the “Inhibitory activity (% of control), Fes(h)” value is listed as 34 % of control. The “Inhibitory activity (% of control), FGFR3(h)” value at FGFR3(h) is given as 33 % of control. Also, on GSK3α(h), the “Inhibitory activity (% of control), GSK3α(h)” value is 15 % of control. Moreover, the “Inhibitory activity (% of control), MSK1(h)” value on MSK1(h) is 62 % of control. The “Inhibitory activity (% of control), PDGFRα(h)” value on PDGFRα(h) is recorded as 72 % of control. Further, at ROCK-II(h), the “Inhibitory activity (% of control), ROCK-II(h)” value is reported as 4 % of control.

Take `CC(C)Cc1nc(-c2ccc3[nH]nc(-c4ccc5cc(OCCN6CCCC6)ccc5c4)c3c2)n[nH]1` [CC002, 5-(5-Isobutyl-1H-[1,2,4]Triazol-3-yl)-3-[6-(2-Pyrrolidin-1-yl-Ethoxy)-Naphthalen-2-yl]-1H-Indazole]: on Blk(m), the “Inhibitory activity (% of control), Blk(m)” value is recorded as 11 % of control. Besides, at CHK2(h), the “Inhibitory activity (% of control), CHK2(h)” value is 1 % of control. The “Inhibitory activity (% of control), Fes(h)” value at Fes(h) was 10 % of control. For the same molecule, the “Inhibitory activity (% of control), FGFR3(h)” value at FGFR3(h) is 5 % of control. In addition, on GSK3α(h), the “Inhibitory activity (% of control), GSK3α(h)” value was 38 % of control. Besides, the “Inhibitory activity (% of control), MSK1(h)” value at MSK1(h) is listed as 45 % of control. The “Inhibitory activity (% of control), PDGFRα(h)” value on PDGFRα(h) is 71 % of control. Also, the “Inhibitory activity (% of control), ROCK-II(h)” value on ROCK-II(h) was 2 % of control.

As to `CC(C)(C)Cc1nc(-c2ccc3[nH]nc(-c4ccc5cc(OCc6ccccn6)ccc5c4)c3c2)n[nH]1` [CC004, 5-[5-(2,2-Dimethyl-propyl)-1H-[1,2,4]triazol-3-yl]-3-[6-(pyridine-2-ylmethoxy)-naphthalen-2-yl]-1H-indazole], the “Inhibitory activity (% of control), Blk(m)” value on Blk(m) is 43 % of control. The “Inhibitory activity (% of control), CHK2(h)” value on CHK2(h) was 7 % of control. In addition, the “Inhibitory activity (% of control), Fes(h)” value on Fes(h) is listed as 70 % of control. For the same molecule, the “Inhibitory activity (% of control), FGFR3(h)” value on FGFR3(h) is 77 % of control. Besides, the “Inhibitory activity (% of control), GSK3α(h)” value on GSK3α(h) is given as 65 % of control. In addition, the “Inhibitory activity (% of control), MSK1(h)” value at MSK1(h) was 76 % of control. Besides, the “Inhibitory activity (% of control), PDGFRα(h)” value on PDGFRα(h) was 77 % of control. Further, the “Inhibitory activity (% of control), ROCK-II(h)” value on ROCK-II(h) was 5 % of control.

For the molecule `CCN1CCC[C@H]1COc1ccc2cc(-c3n[nH]c4ccc(-c5nc(CC(C)(C)C)n[nH]5)cc34)ccc2c1` [CC005, 2-[((2s)-1-ethylpyrrolidin-2-yl)methoxy]-6-{5-[3-(2,2-Dimethylpropyl)(1H-1,2,4,-triazol-5-yl)](1H-indazol-3-yl)}naphthalene], the “Inhibitory activity (% of control), Blk(m)” value on Blk(m) is 4 % of control. In addition, the “Inhibitory activity (% of control), CHK2(h)” value on CHK2(h) is 1 % of control. For the same molecule, the “Inhibitory activity (% of control), Fes(h)” value on Fes(h) is given as 8 % of control. Further, the “Inhibitory activity (% of control), FGFR3(h)” value on FGFR3(h) is 5 % of control. Moreover, the “Inhibitory activity (% of control), GSK3α(h)” value on GSK3α(h) is 35 % of control. For the same molecule, the “Inhibitory activity (% of control), MSK1(h)” value on MSK1(h) was 25 % of control. The “Inhibitory activity (% of control), PDGFRα(h)” value at PDGFRα(h) is recorded as 28 % of control. For the same molecule, the “Inhibitory activity (% of control), ROCK-II(h)” value at ROCK-II(h) is recorded as 2 % of control.

As to `Fc1ccc(-c2n[nH]c3ccc(-c4n[nH]c(C5CCCC5)n4)cc23)cc1` [CC006, 5-(5-Cyclopentyl-1H-[1,2,4]triazol-3-yl)-3-(4-fluoro-phenyl)-1H-indazole, reference compound], the “Inhibitory activity (% of control), Blk(m)” value on Blk(m) was 60 % of control. Besides, the “Inhibitory activity (% of control), CHK2(h)” value at CHK2(h) is recorded as 20 % of control. Besides, at Fes(h), the “Inhibitory activity (% of control), Fes(h)” value was 70 % of control. The “Inhibitory activity (% of control), FGFR3(h)” value at FGFR3(h) was 33 % of control. The “Inhibitory activity (% of control), GSK3α(h)” value at GSK3α(h) is reported as 38 % of control. Further, on MSK1(h), the “Inhibitory activity (% of control), MSK1(h)” value was 72 % of control. For the same molecule, at PDGFRα(h), the “Inhibitory activity (% of control), PDGFRα(h)” value is 86 % of control. Further, on ROCK-II(h), the “Inhibitory activity (% of control), ROCK-II(h)” value is 13 % of control.

Regarding `O=C(NC1CCCC1)c1cccc(-c2n[nH]c3ccc(-c4nc[nH]n4)cc23)c1` [CC007, 3-(5-(1H-1,2,4-triazol-3-yl)(1H-indazol-3-yl))phenyl-N-cyclopentylcarboxamide, reference compound], on Blk(m), the “Inhibitory activity (% of control), Blk(m)” value was 76 % of control. Besides, the “Inhibitory activity (% of control), CHK2(h)” value at CHK2(h) is given as 6 % of control. Also, the “Inhibitory activity (% of control), Fes(h)” value at Fes(h) is recorded as 41 % of control. For the same molecule, the “Inhibitory activity (% of control), FGFR3(h)” value on FGFR3(h) is given as 54 % of control. At GSK3α(h), the “Inhibitory activity (% of control), GSK3α(h)” value is recorded as 18 % of control. In addition, the “Inhibitory activity (% of control), MSK1(h)” value on MSK1(h) is recorded as 89 % of control. For the same molecule, the “Inhibitory activity (% of control), PDGFRα(h)” value at PDGFRα(h) was 108 % of control. Moreover, the “Inhibitory activity (% of control), ROCK-II(h)” value on ROCK-II(h) is listed as 69 % of control.
